Data published in ChEMBL document CHEMBL1201862, “PubChem BioAssay data set” (2004).
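1) Cells in 96-well plates. 2) Compound, 48 h, 5 concentrations. 3) Linear interpolation between surrounding doses. 4) Unreached endpoint = highest concentration. Abbreviation: GI50, concentration required for 50% inhibition of growth.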 Activity calls are given as the source filed them. Rule as the data show it: active = GI50 up to about 1.1 µM and inactive = higher.

Tests used:
Assay in all cases: NCI anticancer screen, dose series, 48 h
[1] = test system: A549
[2] = test system: HCT-116
[3] = test system: HCT-15
[4] = test system: HL-60
[5] = test system: HT-29
[6] = test system: KM12
[7] = test system: LOX IMVI
[8] = test system: MDA-N
[9] = test system: NCI-H23
[10] = test system: NCI-H522
[11] = test system: NCI/ADR-RES
[12] = test system: SF-268
[13] = test system: SF-539
[14] = test system: SK-MEL-2
[15] = test system: SK-OV-3
[16] = test system: SW-620
[17] = test system: TK-10
[18] = test system: U-251
[19] = test system: NCI-H226

For `CCOC(=O)c1c(C)n(C)c2c1cc(O)c1[nH]c3c(c12)CCCC3`, the GI50 [1] was 18 µM (inactive), the GI50 [2] was 17.9 µM (inactive) and the GI50 [3] was 27.2 µM. The GI50 [4] was 21.6 µM (inactive), the GI50 [5] was 18.8 µM (inactive) and the GI50 [6] was 15 µM (inactive). For the same molecule, the GI50 [7] was 14.5 µM (inactive), the GI50 [8] was 15.6 µM (inactive) and the GI50 [9] was 21 µM (inactive). For the same molecule, the GI50 [10] was 14 µM (inactive), the GI50 [11] was 17.9 µM (inactive) and the GI50 [12] was 2 µM (inactive). For the same molecule, the GI50 [13] was 19.2 µM (inactive), the GI50 [14] was 18.5 µM (inactive) and the GI50 [15] was 29.4 µM (inactive). The GI50 [16] was 20.8 µM (inactive), the GI50 [17] was 22.9 µM (inactive) and the GI50 [18] was 18.2 µM (inactive).

`CO/N=C(/C(=O)N(C(=O)/C(=N/OC)c1csc(NC(c2ccccc2)(c2ccccc2)c2ccccc2)n1)n1cnn(CC(=O)OC(C)(C)C)c1=O)c1csc(NC(c2ccccc2)(c2ccccc2)c2ccccc2)n1` was tested, and the GI50 [1] was > 10 µM (inactive), the GI50 [2] was > 10 µM (inactive) and the GI50 [3] was greater than 10 µM. For the same molecule, the GI50 [4] was > 10 µM (inactive), the GI50 [5] was > 10 µM (inactive) and the GI50 [6] was > 10 µM (inactive). For the same molecule, the GI50 [7] was > 10 µM (inactive), the GI50 [8] was > 10 µM (inactive) and the GI50 [19] was > 10 µM (inactive). The GI50 [9] was > 10 µM (inactive), the GI50 [10] was > 10 µM (inactive) and the GI50 [11] was > 10 µM (inactive). The GI50 [12] was > 10 µM (inactive), the GI50 [13] was > 10 µM (inactive) and the GI50 [14] was 2.31 µM (inactive). For the same molecule, the GI50 [15] was > 10 µM (inactive), the GI50 [16] was > 10 µM (inactive) and the GI50 [17] was > 10 µM (inactive). For the same molecule, the GI50 [18] was > 10 µM (inactive).

In the case of `CN(C)c1ccc(/C=C(\NC(=O)c2ccccc2)C(=O)NC(Cc2c[nH]c3ccccc23)C(=O)O)cc1` (stereo unspecified), the GI50 [1] is reported as > 100 µM (inactive), the GI50 [2] is reported as > 100 µM (inactive) and the GI50 [3] is reported as greater than 100 µM. The GI50 [4] was > 100 µM (inactive), the GI50 [5] was > 100 µM (inactive) and the GI50 [6] was > 100 µM (inactive). For the same molecule, the GI50 [7] was > 100 µM (inactive), the GI50 [8] was > 100 µM (inactive) and the GI50 [19] was > 100 µM (inactive). For the same molecule, the GI50 [9] was > 100 µM (inactive), the GI50 [10] was 47.6 µM (inactive) and the GI50 [11] was > 100 µM (inactive). For the same molecule, the GI50 [12] was > 100 µM (inactive), the GI50 [13] was > 100 µM (inactive) and the GI50 [14] was > 100 µM (inactive). The GI50 [15] was > 100 µM (inactive), the GI50 [16] was > 100 µM (inactive) and the GI50 [17] was > 100 µM (inactive). For the same molecule, the GI50 [18] was > 100 µM (inactive).

In the case of `CCOC(=O)C(=[N+]=[N-])C(=O)C1(C(=O)OCC)CCN(C(=O)c2ccccc2)C1=O` (stereo unspecified), the GI50 [1] is reported as > 100 µM (inactive), the GI50 [2] is reported as > 100 µM (inactive) and the GI50 [3] is reported as greater than 100 µM. For the same molecule, the GI50 [4] was > 100 µM (inactive), the GI50 [5] was > 100 µM (inactive) and the GI50 [6] was > 100 µM (inactive). The GI50 [7] was > 100 µM (inactive), the GI50 [8] was > 100 µM (inactive) and the GI50 [19] was > 100 µM (inactive). For the same molecule, the GI50 [9] was > 100 µM (inactive), the GI50 [10] was > 100 µM (inactive) and the GI50 [11] was > 100 µM (inactive). For the same molecule, the GI50 [12] was > 100 µM (inactive), the GI50 [13] was > 100 µM (inactive) and the GI50 [14] was > 100 µM (inactive). For the same molecule, the GI50 [15] was > 100 µM (inactive) and the GI50 [17] was > 100 µM (inactive).

In the case of `CC(CNC(N)=O)NC(N)=O` (stereo unspecified), the GI50 [1] is reported as > 100 µM (inactive), the GI50 [2] is reported as > 100 µM (inactive) and the GI50 [3] is reported as greater than 100 µM. The GI50 [4] was > 100 µM (inactive), the GI50 [5] was > 100 µM (inactive) and the GI50 [6] was > 100 µM (inactive). For the same molecule, the GI50 [7] was > 100 µM (inactive), the GI50 [8] was > 100 µM (inactive) and the GI50 [19] was > 100 µM (inactive). For the same molecule, the GI50 [9] was > 100 µM (inactive), the GI50 [10] was > 100 µM (inactive) and the GI50 [11] was > 100 µM (inactive). The GI50 [12] was > 100 µM (inactive), the GI50 [13] was > 100 µM (inactive) and the GI50 [14] was > 100 µM (inactive). The GI50 [15] was > 100 µM (inactive), the GI50 [16] was > 100 µM (inactive) and the GI50 [17] was > 100 µM (inactive). The GI50 [18] was > 100 µM (inactive).

For `Cc1c(C(=O)Nc2ccccc2)nnn1-c1ccnc2cc(C(F)(F)F)ccc12`, the GI50 [1] was 89.5 µM (inactive), the GI50 [2] was 45.5 µM (inactive) and the GI50 [3] was 45.3 µM. For the same molecule, the GI50 [4] was 35 µM (inactive), the GI50 [5] was 80.2 µM (inactive) and the GI50 [6] was 50.8 µM (inactive). The GI50 [7] was 28.6 µM (inactive), the GI50 [8] was 33.3 µM (inactive) and the GI50 [19] was 57.4 µM (inactive). For the same molecule, the GI50 [9] was 50.6 µM (inactive), the GI50 [10] was 64.7 µM (inactive) and the GI50 [11] was 42.6 µM (inactive). The GI50 [12] was 78.9 µM (inactive), the GI50 [13] was > 100 µM (inactive) and the GI50 [14] was > 100 µM (inactive). For the same molecule, the GI50 [15] was > 100 µM (inactive), the GI50 [16] was > 100 µM (inactive) and the GI50 [17] was 85.5 µM (inactive). The GI50 [18] was 68.4 µM (inactive).
